Laboratory results from ChEMBL document CHEMBL5107990, “Discovery of 2-vinyl-10H-phenothiazine derivatives as a class of ferroptosis inhibitors with minimal human Ether-a-go-go related gene (hERG) activity for the treatment of DOX-induced cardiomyopathy” (Bioorg Med Chem Lett, 2022).
Activity calls are given as the source filed them. The calls are words filed in the database; no cut-off is given here.

Experiments:
HT-1080 [1] = assay: Anti-ferroptotic activity against Erastin-induced ferroptosis in human HT-1080 cells; format: functional, cell-based
[2] = target: Voltage-gated inwardly rectifying potassium channel KCNH2 (Homo sapiens, UniProt Q12809); assay: Inhibition of hERG; format: toxicity
HT-1080 [3] = assay: Anti-ferroptotic activity against Erastin-induced ferroptosis in human HT-1080 cells assessed as cell viability measured by MTT assay; format: functional, cell-based
Mus musculus [4] = assay: Protection against doxorubicin-induced cardiomyopathy model of mouse assessed as decrease in serum ALT level at 10 to 30 mg/kg, ip administered 2 hrs prior to doxorubicin administration; format: functional, organism-based; conditions: dose 10-30 mg/kg
Mus musculus [5] = assay: Protection against doxorubicin-induced cardiomyopathy model of mouse assessed as decrease in serum CK-MB level at 10 to 30 mg/kg, ip administered 2 hrs prior to doxorubicin administration; format: functional, organism-based; conditions: dose 10-30 mg/kg
HT-1080 [6] = assay: Antioxidant activity in human HT-1080 cells assessed as reduction in lipid ROS production at 0.01 to 1 uM measured by C11-BODIPY staining method; format: functional, cell-based; conditions: dose 0.01-1 µM
Calu-1 [7] = assay: Anti-ferroptotic activity against Erastin-induced ferroptosis in human Calu-1 cells assessed as cell viability measured by MTT assay; format: functional, cell-based
[8] = Antioxidant activity assessed as DPPH radical scavenging activity at 10 to 50 uM; format: functional; conditions: dose 10-50 µM
Mus musculus [9] = assay: Protection against doxorubicin-induced cardiomyopathy model of mouse assessed as decrease in serum AST level at 10 to 30 mg/kg, ip administered 2 hrs prior to doxorubicin administration; format: functional, organism-based; conditions: dose 10-30 mg/kg
Mus musculus [10] = assay: Protection against doxorubicin-induced cardiomyopathy model of mouse assessed as […] in collagen outflow at 10 to 30 mg/kg, ip administered 2 hrs prior to doxorubicin administration measured by H and E staining method; format: functional, organism-based; conditions: dose 10-30 mg/kg
HT-1080 [11] = assay: Anti-ferroptotic activity against Erastin-induced ferroptosis in human HT-1080 cells assessed as decrease in smaller and rounder cells measured by cytocalcein violet 450 staining method; format: functional, cell-based
HT-1080 [12] = assay: Anti-ferroptotic activity against Erastin-induced ferroptosis in human HT-1080 cells assessed as decrease in smaller and rounder cells measured by 7-AAD staining method; format: functional, cell-based
Mus musculus [13] = assay: Protection against doxorubicin-induced cardiomyopathy model of mouse assessed as decrease in serum LDH level at 10 to 30 mg/kg, ip administered 2 hrs prior to doxorubicin administration; format: functional, organism-based; conditions: dose 10-30 mg/kg
Calu-1 [14] = assay: Anti-ferroptotic activity against Erastin-induced ferroptosis in human Calu-1 cells assessed as decrease in smaller and rounder cells measured by cytocalcein violet 450 staining method; format: functional, cell-based
HT-1080 [15] = assay: Antioxidant activity in human HT-1080 cells assessed as reduction in ROS production in cytoplasm at 0.01 to 1 uM measured by H2DCFDA staining method; format: functional, cell-based; conditions: dose 0.01-1 µM
MDA-MB-231 = assay: Anti-ferroptotic activity against Erastin-induced ferroptosis in human MDA-MB-231 cells assessed as cell viability measured by MTT assay; format: functional, cell-based
HT-1080 [16] = assay: Anti-ferroptotic activity against Erastin-induced ferroptosis in human HT-1080 cells assessed as decrease in MDA level at 0.01 to 1 uM; format: functional, cell-based; conditions: dose 0.01-1 µM
ES-2 = assay: Anti-ferroptotic activity against Erastin-induced ferroptosis in human ES2 cells assessed as cell viability measured by MTT assay; format: functional, cell-based
Mus musculus [17] = assay: Protection against doxorubicin-induced cardiomyopathy model of mouse assessed as […] in collagen outflow at 10 to 30 mg/kg, ip administered 2 hrs prior to doxorubicin administration measured by Sirius red staining method; format: functional, organism-based; conditions: dose 10-30 mg/kg
Calu-1 [18] = assay: Anti-ferroptotic activity against Erastin-induced ferroptosis in human Calu-1 cells assessed as decrease in smaller and rounder cells measured by 7-AAD staining method; format: functional, cell-based

Chain of Voltage-gated inwardly rectifying potassium channel KCNH2 (Q12809 whole entry): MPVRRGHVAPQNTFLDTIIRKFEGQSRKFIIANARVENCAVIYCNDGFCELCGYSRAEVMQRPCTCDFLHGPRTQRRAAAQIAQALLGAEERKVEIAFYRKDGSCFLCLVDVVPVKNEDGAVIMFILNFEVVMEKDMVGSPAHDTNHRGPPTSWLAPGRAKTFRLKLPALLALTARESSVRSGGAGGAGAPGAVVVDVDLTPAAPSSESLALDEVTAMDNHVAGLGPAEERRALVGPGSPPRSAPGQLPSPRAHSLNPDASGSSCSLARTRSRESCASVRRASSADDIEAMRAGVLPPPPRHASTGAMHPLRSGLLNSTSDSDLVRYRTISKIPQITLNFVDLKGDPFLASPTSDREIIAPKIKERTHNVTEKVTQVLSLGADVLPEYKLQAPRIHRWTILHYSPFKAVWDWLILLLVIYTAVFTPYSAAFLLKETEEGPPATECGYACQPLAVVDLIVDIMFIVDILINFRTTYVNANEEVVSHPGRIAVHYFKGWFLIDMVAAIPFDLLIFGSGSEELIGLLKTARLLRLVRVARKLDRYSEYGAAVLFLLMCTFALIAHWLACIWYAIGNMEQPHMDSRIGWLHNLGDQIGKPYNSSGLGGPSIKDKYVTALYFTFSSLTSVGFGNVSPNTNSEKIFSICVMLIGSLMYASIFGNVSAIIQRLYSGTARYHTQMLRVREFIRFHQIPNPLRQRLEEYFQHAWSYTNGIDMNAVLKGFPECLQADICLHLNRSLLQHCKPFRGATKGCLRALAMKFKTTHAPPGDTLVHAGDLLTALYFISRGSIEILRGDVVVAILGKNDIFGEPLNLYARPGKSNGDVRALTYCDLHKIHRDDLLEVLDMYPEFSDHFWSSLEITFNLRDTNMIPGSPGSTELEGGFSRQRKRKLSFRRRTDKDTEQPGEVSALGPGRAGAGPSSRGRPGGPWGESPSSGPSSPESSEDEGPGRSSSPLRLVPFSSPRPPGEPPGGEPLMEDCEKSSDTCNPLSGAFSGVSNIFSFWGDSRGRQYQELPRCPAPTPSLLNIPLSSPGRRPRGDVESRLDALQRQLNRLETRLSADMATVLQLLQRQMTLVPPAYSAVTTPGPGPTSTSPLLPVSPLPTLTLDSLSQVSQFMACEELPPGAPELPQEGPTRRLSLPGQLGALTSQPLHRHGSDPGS

SMILES | EC50 (HT-1080 [1]) | further results
C=C(c1ccc2c(c1)Nc1ccccc1S2)c1ccc2c(c1)SCC(=O)N2 | 33 nM | –
C=C(c1cnc2c(c1)CCN2)c1ccc2c(c1)Nc1ccccc1S2 | 89 nM | –
C=C(c1ccc2c(c1)Nc1ccccc1S2)c1cccc2cnccc12 | 26 nM | –
C=C(c1ccc(-c2ccccc2)cc1)c1ccc2c(c1)Nc1ccccc1S2 | 41 nM | –
C=C(c1ccc2c(c1)Nc1ccccc1S2)c1cnc2c(cnn2C)c1 | 58 nM | –
C=C(c1ccccc1)c1ccc2c(c1)Nc1ccccc1S2 | 10 nM | –
C=C(c1ccc2c(c1)Nc1ccccc1S2)c1ccccc1N | 29 nM | –
C=C(c1ccc(N2CCOCC2)cc1)c1ccc2c(c1)Nc1ccccc1S2 | 39 nM | –
C=C(c1ccc2c(c1)Nc1ccccc1S2)c1cnc2c(ccn2C)c1 | 42 nM | –
C=C(c1ccc(N)cc1)c1ccc2c(c1)Nc1ccccc1S2 | 8 nM | –
C=C(c1ccc2c(c1)Nc1ccccc1S2)c1cncc2ccccc12 | 25 nM | –
CC(c1ccc(N2C[C@@H]3C[C@H]2CN3C)cc1)c1ccc2c(c1)Nc1ccccc1S2 (stereo partly drawn) | 3 nM | IC50 [2]: 1980 nM
C=C(c1ccc(NC(C)=O)cc1)c1ccc2c(c1)Nc1ccccc1S2 | 4 nM | IC50 [2]: 22000 nM
C=C(c1ccc(C(F)(F)F)cc1)c1ccc2c(c1)Nc1ccccc1S2 | 11 nM | –
C=C(c1ccc(OC)cc1)c1ccc2c(c1)Nc1ccccc1S2 | 13 nM | –
C=C(c1cccc(N)c1)c1ccc2c(c1)Nc1ccccc1S2 | 17 nM | –
C=C(c1ccc2c(c1)Nc1ccccc1S2)c1ccc2c(c1)OCCO2 | 37 nM | –
C=C(c1ccc2c(c1)Nc1ccccc1S2)c1cccc2ccncc12 | 21 nM | –
C=C(c1ccc(C(C)C)cc1)c1ccc2c(c1)Nc1ccccc1S2 | 40 nM | –
C=C(c1ccc(C2CCCCC2)cc1)c1ccc2c(c1)Nc1ccccc1S2 | 39 nM | –
C=C(c1ccc(N2CC[C@H](N(C)C)C2)cc1)c1ccc2c(c1)Nc1ccccc1S2 | 1 nM | IC50 [2]: 5060 nM
C=C(c1ccc2c(c1)Nc1ccccc1S2)c1cnc2ccccc2c1 | 19 nM | –
C=C(c1ccc(NC(=O)N(C)C)cc1)c1ccc2c(c1)Nc1ccccc1S2 | 20 nM | –
C=C(c1ccc(NC(N)=O)cc1)c1ccc2c(c1)Nc1ccccc1S2 | 1 nM | EC50 (HT-1080 [3]): 1.61 nM; Activity (Mus musculus [4]): Active; Activity (Mus musculus [5]): Active; Activity (HT-1080 [6]): Active; EC50 (Calu-1 [7]): 3.36 nM; Activity [8]: Active; Activity (Mus musculus [9]): Active; Activity (Mus musculus [10]): Active; Activity (HT-1080 [11]): Active; IC50 [2]: > 30000 nM; Activity (HT-1080 [12]): Active; Activity (Mus musculus [13]): Active; Activity (Calu-1 [14]): Active; Activity (HT-1080 [15]): Active; EC50 (MDA-MB-231): 1.01 nM; Activity (HT-1080 [16]): Active; EC50 (ES-2): 1.81 nM; Activity (Mus musculus [17]): Active; Activity (Calu-1 [18]): Active
C=C(c1ccc(N2C[C@@H]3C[C@H]2CN3C)cc1)c1ccc2c(c1)Nc1ccccc1S2 | 3 nM | IC50 [2]: 12000 nM
